# Literature values, collected in patent publication US20020160961A1, “Compositions for the treatment of the catabolic state of prolonged critical illness” (priority 1999, published 2002).
# System: pulsatile TSH secretion
# Conditions: TRH infused together with GHRP-2; catabolic state of prolonged critical illness
structure (smiles),measurement,value
"NC(=O)[C@@H]1CCCN1C(=O)[C@H](Cc1cnc[nH]1)NC(=O)[C@@H]1CCC(=O)N1 [TRH, thyrotropin-releasing hormone]",pulsatile TSH secretion,increased pulsatile TSH secretion
